Where a name gives a salt, the structure may show the parent alone.
Key:
[1] = molecular target: T1, human Adenosine A2a receptor (Homo sapiens, UniProt P29274); assay: Adenosine receptor TR-FRET binding assay (CA200645 displacement), A2a; details: 100 nM CA200645, CHO cell membranes, 2 hours at room temperature
T1 construct: expressed in transfected cells; host or cells: CHO cell membranes

[2] = molecular target: T2, human Adenosine A2b receptor (Homo sapiens, UniProt P29275); assay: Adenosine receptor TR-FRET binding assay (CA200645 displacement), A2b; details: 30 nM CA200645, CHO cell membranes, 2 hours at room temperature
T2 construct: expressed in transfected cells; host or cells: CHO cell membranes
T2 sequence (P29275 1-332): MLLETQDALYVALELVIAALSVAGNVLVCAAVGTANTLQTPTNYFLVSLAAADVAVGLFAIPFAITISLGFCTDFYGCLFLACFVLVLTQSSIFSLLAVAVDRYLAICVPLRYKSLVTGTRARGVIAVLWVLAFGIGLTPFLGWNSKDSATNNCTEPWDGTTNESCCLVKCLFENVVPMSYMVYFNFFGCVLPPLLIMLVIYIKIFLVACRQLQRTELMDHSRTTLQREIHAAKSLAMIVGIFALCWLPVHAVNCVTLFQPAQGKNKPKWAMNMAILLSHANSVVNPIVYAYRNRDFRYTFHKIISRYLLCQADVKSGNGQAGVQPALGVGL

[3] = molecular target: T3, human Adenosine A3 receptor (Homo sapiens, UniProt P0DMS8); assay: Adenosine receptor TR-FRET binding assay (CA200645 displacement), A3
T3 sequence (P0DMS8 1-318): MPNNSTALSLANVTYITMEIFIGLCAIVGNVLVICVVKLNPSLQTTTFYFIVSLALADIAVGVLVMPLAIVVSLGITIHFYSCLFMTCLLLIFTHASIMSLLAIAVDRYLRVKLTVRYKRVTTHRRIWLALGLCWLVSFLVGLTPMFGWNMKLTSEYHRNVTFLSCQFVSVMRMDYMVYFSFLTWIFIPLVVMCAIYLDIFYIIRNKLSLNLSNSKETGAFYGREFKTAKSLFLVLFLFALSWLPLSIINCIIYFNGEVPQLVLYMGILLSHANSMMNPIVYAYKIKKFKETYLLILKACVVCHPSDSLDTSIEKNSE

[4] = molecular target: T4, human Adenosine A1 receptor (Homo sapiens, UniProt P30542); assay: Adenosine receptor TR-FRET binding assay (CA200645 displacement), A1
T4 sequence (P30542 1-326): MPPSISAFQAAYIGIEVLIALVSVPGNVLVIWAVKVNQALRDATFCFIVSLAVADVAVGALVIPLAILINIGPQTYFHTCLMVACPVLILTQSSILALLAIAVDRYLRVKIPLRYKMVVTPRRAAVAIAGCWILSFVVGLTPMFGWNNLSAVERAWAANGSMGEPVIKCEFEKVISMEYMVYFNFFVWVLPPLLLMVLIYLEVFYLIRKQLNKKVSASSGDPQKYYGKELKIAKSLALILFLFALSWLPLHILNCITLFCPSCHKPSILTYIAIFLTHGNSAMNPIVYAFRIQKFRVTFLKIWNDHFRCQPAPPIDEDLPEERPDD

T1 sequence (P29274 whole entry): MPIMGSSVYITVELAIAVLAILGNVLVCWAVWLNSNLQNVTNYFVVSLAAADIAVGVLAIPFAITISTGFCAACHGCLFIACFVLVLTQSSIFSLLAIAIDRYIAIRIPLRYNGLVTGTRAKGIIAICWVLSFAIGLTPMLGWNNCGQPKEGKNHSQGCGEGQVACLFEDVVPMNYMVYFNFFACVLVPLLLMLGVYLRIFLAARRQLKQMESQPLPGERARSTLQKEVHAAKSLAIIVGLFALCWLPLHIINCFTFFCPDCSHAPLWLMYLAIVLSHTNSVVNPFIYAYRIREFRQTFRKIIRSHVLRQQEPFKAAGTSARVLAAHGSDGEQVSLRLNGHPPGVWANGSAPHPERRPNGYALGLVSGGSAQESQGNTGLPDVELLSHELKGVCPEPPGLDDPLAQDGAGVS

SMILES	Ki [1] [nM]	Ki [2] [nM]	Ki [3] [nM]	Ki [4] [nM]
Cc1cc(-c2c(-c3cccc(C#N)c3)nn3ccc(N4CC[C@@H](C(=O)O)C4)nc23)cc(Cl)n1 [Example 2.36]	25.1	430	> 1000	179
CCn1nccc1-c1c(-c2cccc(C#N)c2)nn2ccc(NCc3nnc[nH]3)nc12 [Example 33.5]	91.9	17	> 1000	124
N#Cc1c(-c2ccco2)nn2ccc(N3CCN(Cc4ccccc4)CC3)nc12 [Example 43, 5-(4-Benzylpiperazin-1-yl)-2-(2-furyl)pyrazolo[1,5-a]pyrimidine-3-carbonitrile]	16.4	1860	> 1000	278
CCn1nccc1-c1c(-c2cccc(C#N)c2)nn2ccc(N3CCN(S(C)(=O)=O)CC3)nc12 [Example 33.4]	48.6	120	> 1000	254
N#Cc1c(-c2ccco2)nn2ccc(NC[C@H]3CNCCO3)nc12 [Example 42.1, 2-(2-Furyl)-5-[[(2R)-morpholin-2-yl]methylamino]pyrazolo[1,5-a]pyrimidine-3-carbonitrile hydrochloride]	410	4450	> 1000	680
Nc1ccn2nc(-c3ccco3)c(-c3ccncc3)c2n1 [Example 79, 2-(2-Furyl)-3-(4-pyridyl)pyrazolo[1,5-a]pyrimidin-5-amine]	146	34	2080	14
N#Cc1c(-c2ccco2)nn2ccc(NCC3CCN(Cc4ccccc4)CC3)nc12 [Example 37.9]	69.5	36	> 1000	398
CCn1nccc1-c1c(-c2cccc(C#N)c2)nn2ccc(N)nc12 [Example 1.3]	74.8	16	> 1000	197
Cc1cc(-c2c(-c3cccc(C#N)c3)nn3ccc(C(=O)NC4(C#N)CCNCC4)nc23)cc(Cl)n1 (single isomer, unassigned) [Example 7.16, 3-(2-Chloro-6-methyl-4-pyridyl)-2-(3-cyanophenyl)-N-(4-cyano-4-piperidyl)pyrazolo[1,5-a]pyrimidine-5-carboxamide]	17.7	54	> 1000	418
N#Cc1c(-c2ccco2)nn2ccc(NC[C@@H]3CNCCO3)nc12 [Example 42, 2-(2-Furyl)-5-[[(2S)-morpholin-2-yl]methylamino]pyrazolo[1,5-a]pyrimidine-3-carbonitrile hydrochloride]	345	3060	> 1000	313
Cc1cc(-c2c(-c3cccc(C#N)c3)nn3ccc(N[C@@H](C)C(=O)O)nc23)cc(Cl)n1 [Example 17, (2S)-2-[[3-(2-Chloro-6-methyl-4-pyridyl)-2-(3-cyanophenyl)pyrazolo[1,5-a]pyrimidin-5-yl]amino]propanoic acid]	17.9	101	> 1000	136
C[C@@H]1CN(c2ccn3nc(-c4ccco4)c(C#N)c3n2)CCN1C(=O)OC(C)(C)C [Example 37.10, tert-butyl (2R)-4-[3-cyano-2-(2-furyl)pyrazolo[1,5-a]pyrimidin-5-yl]-2-methyl-piperazine-1-carboxylate]	76	5040	2880	1760
Cc1cccnc1CN1CCN(c2ccn3nc(-c4cccc(F)c4)c(C#N)c3n2)CC1 [Example 60, 2-(3-Fluorophenyl)-5-[4-[(3-methyl-2-pyridyl)methyl]piperazin-1-yl]pyrazolo[1,5-a]pyrimidine-3-carbonitrile]	33.9	4600	1000	27
Cn1nccc1-c1c(-c2ccco2)nn2ccc(NCc3ccccc3)nc12 [Example 53.1, N-benzyl-2-(2-furyl)-3-(2-methylpyrazol-3-yl)pyrazolo[1,5-a]pyrimidin-5-amine]	48.6	129	174	34

Compounds with a lower Ki [1], results first:

Ki [1] [nM]	Ki [2] [nM]	Ki [3] [nM]	Ki [4] [nM]	SMILES
14.8	10	> 1000	135	Cc1cc(-c2c(-c3cccc(C#N)c3)nn3ccc(C(=O)N4CCOCC4)nc23)cc(Cl)n1 [Example 5.7]
12.3	80	> 1000	1840	Cc1cc(-c2c(-c3cccc(C#N)c3)nn3ccc(C(=N)NC(C)(C)C)nc23)cc(Cl)n1 [Example 90, N-tert-Butyl-3-(2-chloro-6-methyl-4-pyridyl)-2-(3-cyanophenyl)pyrazolo [1,5-a]pyrimidine-5-carboxamidine]
11.6	2	> 1000	81	Cc1cc(-c2c(-c3cccc(C#N)c3)nn3ccc(NCC(N)=O)nc23)cc(Cl)n1 [Example 2.28]
10.2	90	1980	163	Cc1cc(-c2c(-c3cccc(C#N)c3)nn3ccc(N(C)C)nc23)cc(Cl)n1 [Example 23.4]
6.2	48	> 1000	109	Cc1cc(-c2c(-c3cccc(C#N)c3)nn3ccc(N[C@@H]4CC[C@@H]4O)nc23)cc(Cl)n1 [Example 2.22]
5.9	54	> 1000	346	Cc1cc(-c2c(-c3cccc(C#N)c3)nn3ccc(C(=O)NC4CN(C)C4)nc23)cc(Cl)n1 [Example 6.16, 3-(2-Chloro-6-methyl-4-pyridyl)-2-(3-cyanophenyl)-N-(1-methylazetidin-3-yl)pyrazolo[1,5-a]pyrimidine-5-carboxamide]
5.7	41	> 1000	418	Cc1cc(-c2c(-c3cccc(C#N)c3)nn3ccc(C(N)=O)nc23)cc(C)n1 [Example 5.8, 2-(3-Cyanophenyl)-3-(2,6-dimethyl-4-pyridyl)pyrazolo[1,5-a]pyrimidine-5-carboxamide]
3.4	35	> 1000	1120	Cc1cc(-c2c(-c3cccc(C#N)c3)nn3ccc(C(=O)N[C@H]4CC[C@@](C)(O)CC4)nc23)cc(C)n1 [Example 92.23]
2.5	24	> 1000	581	Cc1cc(-c2c(-c3cccc(C#N)c3)nn3ccc(C(=O)NCC4CC(O)C4)nc23)cc(Cl)n1 (stereo not shown) [Example 6.10, 3-(2-Chloro-6-methyl-4-pyridyl)-2-(3-cyanophenyl)-N-[(3-hydroxycyclobutyl)methyl]pyrazolo[1,5-a]pyrimidine-5-carboxamide]
0.9	35	> 1000	390	Cc1cc(-c2c(-c3cccc(C#N)c3)nn3ccc(C(=O)N[C@H](C)CO)nc23)cc(Cl)n1 [Example 6.6, 3-(2-Chloro-6-methyl-4-pyridyl)-2-(3-cyanophenyl)-N-[(1R)-2-hydroxy-1-methyl-ethyl]pyrazolo[1,5-a]pyrimidine-5-carboxamide]
0.5	6	> 1000	7	Cc1cc(-c2c(-c3cccc(C#N)c3)nn3ccc(N[C@H](C)[C@H](O)CO)nc23)cc(Cl)n1 [Example 4.8, 3-[3-(2-Chloro-6-methyl-4-pyridyl)-5-[[(1R,2S)-2,3-dihydroxy-1-methyl-propyl]amino]pyrazolo[1,5-a]pyrimidin-2-yl]benzonitrile]

Reference: patent US20230203041A1, “ANTAGONISTS OF THE ADENOSINE A2A RECEPTOR” (AdoRx Therapeutics Limited, priority 2020, published 2023)
